From patent US20080033018A1, “Therapeutic Agents For Overactive Bladder” (Chugai Seiyaku Kabushiki Kaisha, priority 2004, published 2008)

Legend:
[1] = test system: non-anesthetized conscious rats; assay: Hypotensive effect (blood pressure) in non-anesthetized conscious rats after oral administration; format: in vivo, rat; details: compared at a dosage causing a 20 mmHg reduction in blood pressure, FIG. 4
Description: In view of this fact, to study a hypotensive effect regarded as a side effect in the amelioration of frequent urination, both drugs were compared for their effect on blood pressure when orally administrated to non-anesthetized conscious rats (“non-anesthetized conscious rat” as used herein refers to an animal pre-treated such that a catheter for blood pressure measurement is inserted and placed in its femoral artery under anesthesia to ensure blood pressure monitoring, which animal is used on the following day after the anesthesia wears off). […] The measurement of blood pressure was performed as follows: the catheter for blood pressure measurement was connected to a blood pressure transducer (Nihon Kohden Corporation, Japan) and input into a polygraph (Nihon Kohden Corporation, Japan).

KATP channel = details: report, Non-patent Document 7; cited from earlier work
[2] = test system: urethral obstruction rats; assay: Urination frequency after water loading in rat urethral obstruction model; format: in vivo; details: over 210 minutes
Text: As described above, there are many causes that induce frequent urination, and dysuria-induced frequent urination is also known. A rat animal model of urethral obstruction has been reported as a model for efficacy verification of many ameliorating agents for frequent urination (Non-patent Documents 17 and 18). In this example, a midline incision was made in the lower quadrant of each rat (9 weeks of age) under pentobarbital anesthesia, and the proximal urethra was ligatured together with a stainless rod (φ1 mm) by using a 3-0 silk suture, followed by pulling out the rod to create a urethral obstruction model. At 45 days after urethral obstruction, the rats were subjected to water loading (30 ml/kg, po; “water loading” as used herein refers to forced oral administration of distilled water using a sound) and observed for their urination frequency over 210 minutes, such that animals having a urination frequency greater than that of normal animals (5 times) were selected as animals with frequent urination. These animals were administered orally with nicorandil (1 mg/kg) or KRN2391 (1 mg/kg) (dissolved in distilled water for water loading) and then observed for their urination frequency over 210 minutes (n=5 for each group).

nNOS-Knockout mice [3] = assay: Urination dynamics (urination frequency, urination volume) in nNOS-Knockout mice, observation system for urination behavior; format: in vivo
Text: There has been established no animal models of disease reflecting frequent urination in elderly male subjects. In carefully searching various kinds of information, nNOS-Knockout mice were pointed out to have a possibility as a model of frequent urination (dilatation of urinary bladder, hyperplasia of smooth muscle, lack of relaxation responses, see Non-patent Document 9 for its creation) in May, 1997 (Non-patent Document 10), but have not been studied as a therapeutic model. nNOS-Knockout mice have now been investigated for their possibility as a model of frequent urination by using an instrument (an observation system for urination behavior, Muromachi Kikai Co., Ltd., Japan) to determine urination dynamics (urination volume and urination frequency) of the mice. […]
Nicorandil was given to nNOS-Knockout mice (8-13 months of age) by forced oral administration at 6 mg/kg/day for 7 days using a sound for oral administration. […]
The daily urination frequency was measured with an observation system for urination behavior (Muromachi Kikai Co., Ltd., Japan). […]
Furthermore, with the aim of clarifying the contribution of the nicorandil's nitrate-like action, pinacidil (SIGMA) known as a pure and potent KATP channel opener was also used for comparison of the urination frequency (FIG. 2).

nNOS-Knockout mice [4] = assay: Daily urination volume in nNOS-Knockout mice (oliguria); format: in vivo; details: nNOS-Knockout mice 12-16 weeks, 1 mg/kg, 24 hours after administration, p<0.05
[5] = test system: urethral obstruction rats; details: rat, in vivo, po, 1 mg/kg
Description: “Urinary retention” as used herein refers to a state where the urination volume is 3 hr=0.
Rats at 45 days after urethral obstruction (φ1 mm, urethra was obstructed in rats at 9 weeks of age) were administered orally with nicorandil (3 mg/kg) or KRN2391 (1 mg/kg), subjected to water loading (30 ml/kg, po) and then monitored for their urination volume over 180 minutes (n=10 for each group).

[6] = Enarmon-depot 3.6 mg/kg/day, sc, 7 days, n=5, vs control group (n=8), p<0.05

N#CNC(=NCCO[N+](=O)[O-])c1cccnc1 [KRN2391]
amount producing hypotensive effect, smaller than nicorandil [1]: 10 fold
hypotensive effect due to KATP channel opening action, stronger than that of nicorandil (KATP channel): 25 fold
reduction of urination frequency ([2]; 1 mg/kg po, vs before administration): 34.3%
urination frequency after administration ([2]; 45 days after obstruction, 1 mg/kg po with water loading 30 ml/kg, n=5, p<0.05): 2.4±0.8 times/210 minutes
effect on daily urination frequency (ameliorating effect on urination) (nNOS-Knockout mice [3]; 1 mg/kg, p<0.05, FIG. 2): significant ameliorating effect
effect on daily urination volume (nNOS-Knockout mice [4]): significant inhibitory effect
number of animals without urination [5]: 5 animals
urinary retention [5]: a state of urinary retention was observed
urination volume [5]: 0.50 ± 0.30 mL

CCCCCCC(=O)O[C@H]1CC[C@H]2[C@@H]3CCC4=CC(=O)CC[C@]4(C)[C@H]3CC[C@]12C [testosterone, testosterone enanthate]
daily urination volume (nNOS-Knockout mice [3]; Enarmon-depot 3.6 mg/kg/day, sc, 7 days, n=5, vs control group (n=8)): no change
single urination volume (nNOS-Knockout mice [3]; [6]): significant increase
urination frequency (nNOS-Knockout mice [3]; [6]): significant decrease

CC(N/C(=N\C#N)Nc1ccncc1)C(C)(C)C (stereo not shown) [pinacidil]
urination frequency (nNOS-Knockout mice [3]; oral 0.3 mg/kg (dose strongly affecting the mouse cardiovascular system), FIG. 2): no significant decrease
